The source of these data is patent US20230114153A1, “IMIDAZOLYL THIOPEHENE SULFONYL CARBAMATES FOR USE IN THE TREATMENT OF DISEASES ASSOCIATED WITH ANGIOTENSIN II” (Vicore Pharma AB, priority 2020, published 2023).

One series concerns the target T1, CYP2C19 (Homo sapiens, UniProt P33261).
T1 construct: incubated with human liver microsomes; tissue Eurofins (contract protocol) ITEMG232; host or cells: human liver microsomes
Description: CYP inhibition in human liver microsomes, CYP2C19. It counts as in vitro ADME. The conditions noted are these: probe omeprazole, substrate omeprazole, read-out: CYP2C19 Inh %. The protocol:
(§1) The following substrates were used; CYP1A phenacetin, CYP2B6 bupropion, CYP2C8 paclitaxel and amodiaquine, CYP2C9 diclofenac, CYP2C19 omeprazole, CYP2D6 dextromethorphan, CYP3A midazolam and testosterone. At the end of the incubation, the formation of metabolite was monitored by HPLC-MS/MS as the peak area response.
In general terms: Liver microsomes are a subcellular fraction often used to study metabolism.

A further series addresses T2, CYP3A4 (Homo sapiens, UniProt P08684).
T2 construct: incubated with human liver microsomes; tissue Eurofins (contract protocol) ITEMG232; host or cells: human liver microsomes
The series can be described thus: CYP inhibition in human liver microsomes, CYP3A4 (midazolam). In kind it is in vitro ADME. To be noted: probe midazolam, substrate midazolam, read-out: CYP3A4 midazolam Inh %. The method, then: as §1

A further series deals with T3, CYP2B6 (Homo sapiens, UniProt P20813).
T3 construct: incubated with human liver microsomes; tissue Eurofins (contract protocol) ITEMG232; host or cells: human liver microsomes
T3 sequence (P20813 1-491): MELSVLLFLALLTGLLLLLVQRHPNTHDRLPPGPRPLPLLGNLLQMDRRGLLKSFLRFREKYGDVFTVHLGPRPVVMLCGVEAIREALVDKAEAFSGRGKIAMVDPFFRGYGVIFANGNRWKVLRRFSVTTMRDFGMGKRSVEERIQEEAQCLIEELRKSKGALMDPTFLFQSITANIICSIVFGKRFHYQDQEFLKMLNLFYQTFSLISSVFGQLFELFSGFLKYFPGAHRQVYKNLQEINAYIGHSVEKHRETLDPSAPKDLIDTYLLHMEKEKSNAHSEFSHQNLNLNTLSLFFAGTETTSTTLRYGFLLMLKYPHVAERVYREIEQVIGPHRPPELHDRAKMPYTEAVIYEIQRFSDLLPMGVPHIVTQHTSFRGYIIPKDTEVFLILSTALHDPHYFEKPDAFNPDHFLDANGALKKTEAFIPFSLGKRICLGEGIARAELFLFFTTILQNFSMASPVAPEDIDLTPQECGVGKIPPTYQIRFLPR
The series can be described thus: CYP inhibition in human liver microsomes, CYP2B6. It counts as in vitro ADME. To be noted: probe bupropion, substrate bupropion, read-out: CYP2B6 Inh %. The method, then:
as §1

In the next series the target is T4, CYP2C8 (Homo sapiens, UniProt P10632).
T4 construct: incubated with human liver microsomes; tissue Eurofins (contract protocol) ITEMG232; host or cells: human liver microsomes
T4 sequence (P10632 1-490): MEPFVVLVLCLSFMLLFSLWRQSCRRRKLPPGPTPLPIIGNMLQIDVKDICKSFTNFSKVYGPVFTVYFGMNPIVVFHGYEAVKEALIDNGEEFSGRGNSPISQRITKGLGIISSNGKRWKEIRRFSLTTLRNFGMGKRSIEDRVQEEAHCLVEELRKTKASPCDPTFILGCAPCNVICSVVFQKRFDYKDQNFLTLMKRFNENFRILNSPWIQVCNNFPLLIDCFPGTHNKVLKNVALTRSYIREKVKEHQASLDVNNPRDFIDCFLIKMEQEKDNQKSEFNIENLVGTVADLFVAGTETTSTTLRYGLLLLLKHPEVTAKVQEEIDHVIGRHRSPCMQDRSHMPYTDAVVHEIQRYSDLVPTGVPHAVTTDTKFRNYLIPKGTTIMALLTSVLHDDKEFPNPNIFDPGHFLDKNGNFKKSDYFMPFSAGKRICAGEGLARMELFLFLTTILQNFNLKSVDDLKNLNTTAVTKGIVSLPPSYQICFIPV
Description: CYP inhibition in human liver microsomes, CYP2C8. It counts as in vitro ADME. To be noted: probe paclitaxel and amodiaquine, substrates paclitaxel and amodiaquine, read-out: CYP2C8 Inh %. The protocol:
as §1

Another series concerns the target T5, CYP1A (Homo sapiens, UniProt P05177).
T5 construct: incubated with human liver microsomes; tissue Eurofins (contract protocol) ITEMG232; host or cells: human liver microsomes
T5 sequence (P05177 1-516): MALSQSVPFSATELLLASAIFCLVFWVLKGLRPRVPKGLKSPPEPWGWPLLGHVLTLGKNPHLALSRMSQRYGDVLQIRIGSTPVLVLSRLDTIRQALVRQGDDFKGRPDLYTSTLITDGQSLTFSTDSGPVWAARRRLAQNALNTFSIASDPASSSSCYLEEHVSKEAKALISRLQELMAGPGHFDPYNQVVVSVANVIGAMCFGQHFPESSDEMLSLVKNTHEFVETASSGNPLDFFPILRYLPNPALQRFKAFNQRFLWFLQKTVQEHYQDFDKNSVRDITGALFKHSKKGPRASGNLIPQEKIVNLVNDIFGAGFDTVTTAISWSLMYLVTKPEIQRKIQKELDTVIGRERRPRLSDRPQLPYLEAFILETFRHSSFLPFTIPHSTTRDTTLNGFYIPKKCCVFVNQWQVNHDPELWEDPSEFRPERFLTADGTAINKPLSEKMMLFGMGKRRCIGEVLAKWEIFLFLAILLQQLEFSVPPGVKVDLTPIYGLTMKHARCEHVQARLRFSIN
The series can be described thus: CYP inhibition in human liver microsomes, CYP1A. In kind it is in vitro ADME. The conditions noted are these: probe phenacetin, substrate phenacetin, read-out: CYP1A Inh %. The protocol: as §1

The next series concerns the target T6, CYP2D6 (Homo sapiens, UniProt P10635).
T6 construct: incubated with human liver microsomes; tissue Eurofins (contract protocol) ITEMG232; host or cells: human liver microsomes
The series can be described thus: CYP inhibition in human liver microsomes, CYP2D6. It counts as in vitro ADME. The conditions noted are these: probe dextromethorphan, substrate dextromethorphan, read-out: CYP2D6 Inh %. The protocol:
as §1

The next series relates to CYP3A4&5. The series can be described thus: CYP inhibition in human liver microsomes, CYP3A4&5 (testosterone). The conditions noted are these: probe testosterone, substrate testosterone, read-out: CYP3A4&5 testosterone Inh %. In kind it is in vitro ADME. The method, then: as §1
In the next series the target is T7, CYP2C9 (Homo sapiens, UniProt P11712).
T7 construct: incubated with human liver microsomes; tissue Eurofins (contract protocol) ITEMG232; host or cells: human liver microsomes
T7 sequence (P11712 whole entry): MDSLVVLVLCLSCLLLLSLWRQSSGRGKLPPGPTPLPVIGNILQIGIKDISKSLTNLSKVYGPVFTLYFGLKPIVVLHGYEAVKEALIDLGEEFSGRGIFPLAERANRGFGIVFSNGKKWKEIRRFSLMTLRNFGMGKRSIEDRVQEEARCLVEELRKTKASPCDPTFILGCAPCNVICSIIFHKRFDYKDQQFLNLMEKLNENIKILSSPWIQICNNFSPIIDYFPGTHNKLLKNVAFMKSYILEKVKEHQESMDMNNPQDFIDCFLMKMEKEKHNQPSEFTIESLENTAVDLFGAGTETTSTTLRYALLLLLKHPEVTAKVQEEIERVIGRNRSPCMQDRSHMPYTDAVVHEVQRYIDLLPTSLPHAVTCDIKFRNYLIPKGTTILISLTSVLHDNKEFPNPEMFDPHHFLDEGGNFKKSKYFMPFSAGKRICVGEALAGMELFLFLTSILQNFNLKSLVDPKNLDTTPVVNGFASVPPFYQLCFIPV
The series can be described thus: CYP inhibition in human liver microsomes, CYP2C9. In kind it is in vitro ADME. The conditions noted are these: probe diclofenac, substrate diclofenac, read-out: CYP2C9 Inh %. The protocol:
as §1

For series [1], the target named is T8, human recombinant AT2 receptor (Homo sapiens, UniProt P50052).
T8 construct: Eurofins (contract protocol) ITEM26
T8 sequence (P50052 1-363): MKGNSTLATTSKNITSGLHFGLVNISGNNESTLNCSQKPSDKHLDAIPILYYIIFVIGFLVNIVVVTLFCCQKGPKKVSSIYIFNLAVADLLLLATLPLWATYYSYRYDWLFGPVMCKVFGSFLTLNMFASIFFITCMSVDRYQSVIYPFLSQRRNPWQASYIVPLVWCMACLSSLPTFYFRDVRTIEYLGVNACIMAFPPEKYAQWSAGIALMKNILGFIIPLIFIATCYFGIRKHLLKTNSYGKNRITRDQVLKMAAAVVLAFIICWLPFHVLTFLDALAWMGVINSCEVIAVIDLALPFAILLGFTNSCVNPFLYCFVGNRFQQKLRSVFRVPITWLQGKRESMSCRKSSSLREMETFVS
Description: Binding to human recombinant AT2 receptor, radiometric scintillation assay (Eurofins ITEM26). The conditions noted are these: ligand 125I CGP 42112A, 2-4 h at 37° C., tested at 1, 10, 100 and 1000 nM.

T6 sequence (P10635 whole entry): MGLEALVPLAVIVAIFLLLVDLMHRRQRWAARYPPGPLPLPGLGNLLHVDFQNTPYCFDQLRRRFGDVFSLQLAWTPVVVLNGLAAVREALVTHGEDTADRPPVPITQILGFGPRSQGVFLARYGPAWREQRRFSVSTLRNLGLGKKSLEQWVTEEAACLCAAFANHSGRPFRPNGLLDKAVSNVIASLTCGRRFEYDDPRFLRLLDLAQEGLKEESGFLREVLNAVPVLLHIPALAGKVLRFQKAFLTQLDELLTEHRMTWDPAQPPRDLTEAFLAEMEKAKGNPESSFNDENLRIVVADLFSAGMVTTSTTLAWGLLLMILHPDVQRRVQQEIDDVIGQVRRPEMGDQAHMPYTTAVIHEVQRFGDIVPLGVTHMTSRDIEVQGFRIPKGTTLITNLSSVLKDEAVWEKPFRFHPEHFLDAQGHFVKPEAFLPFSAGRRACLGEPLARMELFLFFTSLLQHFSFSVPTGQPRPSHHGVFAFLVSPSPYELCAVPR
T2 sequence (P08684 whole entry): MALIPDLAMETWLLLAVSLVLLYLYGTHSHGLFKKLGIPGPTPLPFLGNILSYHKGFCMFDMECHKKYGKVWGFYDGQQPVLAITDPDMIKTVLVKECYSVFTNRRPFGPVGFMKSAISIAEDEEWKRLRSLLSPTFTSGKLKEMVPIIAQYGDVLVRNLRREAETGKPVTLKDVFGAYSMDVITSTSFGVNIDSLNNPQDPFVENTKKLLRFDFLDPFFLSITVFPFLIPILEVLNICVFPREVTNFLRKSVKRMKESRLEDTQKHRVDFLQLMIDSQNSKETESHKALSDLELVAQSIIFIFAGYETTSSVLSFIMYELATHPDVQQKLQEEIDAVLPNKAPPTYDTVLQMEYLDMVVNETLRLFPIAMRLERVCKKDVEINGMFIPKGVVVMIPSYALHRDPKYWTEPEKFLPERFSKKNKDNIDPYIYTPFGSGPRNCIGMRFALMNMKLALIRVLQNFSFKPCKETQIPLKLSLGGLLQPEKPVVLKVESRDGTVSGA
T1 sequence (P33261 whole entry): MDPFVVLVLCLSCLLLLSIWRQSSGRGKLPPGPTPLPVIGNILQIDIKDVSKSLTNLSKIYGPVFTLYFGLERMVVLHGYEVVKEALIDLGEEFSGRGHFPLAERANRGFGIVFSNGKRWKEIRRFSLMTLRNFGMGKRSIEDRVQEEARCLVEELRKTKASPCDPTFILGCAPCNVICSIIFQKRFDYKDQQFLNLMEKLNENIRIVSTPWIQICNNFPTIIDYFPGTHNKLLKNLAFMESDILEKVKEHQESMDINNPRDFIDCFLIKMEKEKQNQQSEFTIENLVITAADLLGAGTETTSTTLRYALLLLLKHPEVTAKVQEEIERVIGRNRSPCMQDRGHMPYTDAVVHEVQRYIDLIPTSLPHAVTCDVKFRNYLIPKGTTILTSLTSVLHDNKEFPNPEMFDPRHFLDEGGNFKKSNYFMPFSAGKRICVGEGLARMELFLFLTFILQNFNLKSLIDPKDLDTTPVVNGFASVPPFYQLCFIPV

Take `CCCCOC(=O)NS(=O)(=O)c1sc(CC(C)C)cc1-c1ccc(Cn2ccnc2C)cc1` [Example 1, Butyl (5-isobutyl-3-(4-((2-methyl-1H-imidazol-1-yl)methyl)phenyl)thiophen-2-yl)sulfonyl-carbamate]: the inhibition at 10 µM at CYP2C19 was 43%; on CYP3A4, approximately 0%; at CYP2B6, 17.6%; at CYP2C8, 37.5%; at CYP1A it was 2.5%; on CYP2D6 it was 22.4%. Also, the inhibition at 10 µM in the series on CYP3A4&5 was 13.5%; at CYP2C9, 58.9%. The 50% inhibitory concentration (IC50) (commonly the concentration at which inhibition is half-maximal) in series [1] was determined as 0.53 nM.
Take `CCCCOC(=O)NS(=O)(=O)c1sc(CC(C)C)cc1-c1ccc(Cn2ccnc2)cc1` [Example C21, N-butyloxycarbonyl-3-(4-imidazol-1-ylmethylphenyl)-5-isobutylthiophene-2-sulfon-amide, reference compound]: the inhibition at 10 µM was found to be 95.2% on CYP3A4; 48.8% at CYP2B6; 80.4% at CYP2C8; 90.9% at CYP1A; 81.2% at CYP2D6; 94.2% in the series on CYP3A4&5.
